Data as given in patent US20030170223A1, “Pulmonary vasodilator surfactant compositions and method of use” (Board of Trustees of Michigan State University, priority 2002, published 2003).

How the values were obtained:
[1] = aqueous solutions; cited from earlier work
[2] = test system: PA smooth muscle cell contraction in the lungs from new born rats (U46619 vasoconstriction); experiment: Non-specific inhibition test: U46619 vasoconstriction response in isolated perfused lungs; set-up: species or system Sprague-Dawley rats; details: U46619 5 ng/mL
Protocol: (§1) Isolated perfused lung preparation prepared from newborn rats. Male or female newborn (less than 48 hours old) Sprague-Dawley rats are anesthetized with pentobarbital sodium (0.65 mg/kg; ip), and heparin (1000 U/kg) is administered intravenously. Lungs are isolated as follows. Briefly, the lungs and the heart are remove en block and the pulmonary artery (PA) and left atrium are cannulated and perfused with a buffered salt solution (BSS) (NaCl (117 mM), KCl (4 mM), NaHCO3 (18 mM), MgSO4 (0.76 mM), NaHPO4′H2O (1 mM), CaCl2 (1.21 mM), and glucose (1 g/L)) containing bovine serum albumin (0.5% w/v) and indomethacin (10 mg/L). After flushing the pulmonary circulation with perfusate (100-200 mL), the lungs are perfused from a recirculating system (35 mL) at 8 mL/min. Perfusate is maintained at […], pH 7.4, and bubbled with 5% O2, 5% CO2, and 90% N2. Left atrial pressure is maintained at 1 cm H2O2 by elevating the venous outflow cannula. The lungs are ventilated with a small animal respirator using a humidified gas mixture of 21% O2, 5% CO2, and 74% N2 (normoxia) at a rate of 54 breaths/in, a tidal volume of 2-3 mL and an end-expiratory pressure of 3 cm H2O2. Left atrial and PA pressures are continuously recorded on a multichannel strip chart recorder (Grass Instruments, Quincy, Mass.).
Hypoxia-induced changes in pulmonary vascular impedance are represented as the change in PA pressure observed during hypoxic ventilation under constant flow conditions, compared with normoxia, in cm H2O. Two hypoxic challenges are performed and averaged to define the baseline response prior to the experimental intervention, thus allowing each lung to act as its own control. The experimental agents then are added to the reservoir and allowed to recirculate for 5-10 minutes, after which two more hypoxic challenges are administered and averaged to evaluate the effects of the intervention. In the continued presence of the experimental agents, the stable thromboxane A2 analog, U46619 (5 ng/mL) is then added to the reservoir to determine the effect on the ability to respond to a receptor-mediated vasoconstricting agonist. This provided a measure of the specificity of the intervention for the response to hypoxia.
Non-specific inhibition of PA smooth muscle cell contraction in the lungs from new born rats. To determine whether the pharmacological agents that inhibited the HPV response in our study might also affect the response a receptor-mediated vasoconstrictor, studies are carried out using the stable Thromboxane A2 analog, U46619 (5 ng/mL). Experiments are performed to assess the U46619 response before and after the addition of the experimental agents. Briefly, lungs are subjected to a challenge of U46619 and the change in PA pressure is measured. The vasculature is then washed out with fresh perfusate until the PA pressure returned to baseline (approximately 10 minutes elapsed time), after which the experimental agents are administered to the reservoir. After 10 minutes, a second dose of U46619 is added to the reservoir and the change in PA pressure is measured. Only Rotenone blunted the U46619 vasoconstriction at 5 μg/mL. Myxothiazol (50 μg/mL), cyanide (10 μM), ebselen (50 μM), and DDC (1 μM) had no effect on the U46619 vasoconstriction response. DPI (10 μM), rotenone (50 ng/mL), antimycin A (1 ng/mL), PDTC (10 μM), and DIDS (200 μM) augmented the U46619 vasoconstriction response.

[3] = test system: PA myocytes; details: 10 μM
Protocol: To confirm that the loss of DCF fluorescence upon reoxygenation is not due to cell death subsequent to the opening of the mitochondrial permeability transition pore, additional studies are carried out using tetraethyrhodamine methyl ester (TMRE) to assess mitochondrial membrane potential (ΔΨm). This cationic dye equilibrates across the mitochondrial inner membrane in accordance with the AΔΨm, and changes in endothelia fluorescence at these non-quenching concentrations can be used to detect changes in mitochondrial polarization. PA myocytes on collagen-coated cover slips are loaded with TMRE (100 nM) for 45 minutes at 37° C. The cells are then placed in a flow-through chamber on an inverted microscope and perfused with M199 media without serum containing TMRE (10 nM). Fluorescence images are obtained under baseline normoxic conditions (16% O2/5% CO2) until a stable baseline is established. The PO2 of the media is then lowered for 30 mm (1% O2/5% CO2), after which it is restored to normoxia for 30 minutes.

[4] = test system: PA endothelia myocytes; experiment: DCFH oxidation (ROS probe) sensitivity check; assay type: cell-based, rat
Protocol: Pulmonary microvessel endothelia isolation and measurement of reactive oxygen species (ROS). ROS generation in pulmonary endothelia and myocytes is assessed using the probe 2′,7′-dichlorofluorescin diacetate (DCFH-DA, 5 μM Molecular Probes), which is continuously present in the perfusate. The diacetate form enters the cells where esterases cleave the acetate group, tending to trap the nonfluorescent 2′,7′-dichlorofluorescin (DCFH) intracellularly. In the presence of H2O2, this probe is oxidized to 2′,7′-dichlorofluorescein (DCF), which is quantified using fluorescence imaging (excitation: 488 nm, emission: 535 nm) in a system equipped with a 12 bit digital camera. Intensity values are reported as percent of initial values, after subtracting background (METAMORPHIC, Universal Imaging, Inc.).
To confirm that the DCFH dye is sensitive to oxidation by H2O2, additional studies are carried out in PA endothelia myocytes superfused with normoxic (16% O2) media in the presence of DCFH-DA (5 μM). […] When the H2O2-containing media is replaced with fresh media containing DCFH without H2O2, intracellular fluorescence decreased toward baseline values. These findings confirm that DCFH oxidation is sensitive to H2O2, and that oxidized DCF can leak out of viable cells and explain the decrease in fluorescence seen at reoxygenation.

[5] = test system: degradation of IκB-β / NF-κB; details: in vivo and experimental lung transplant preservation media; cited from earlier work
[6] = test system: PA myocytes; experiment: SYTOX Green membrane permeability check; assay type: cell-based, rat; details: 300 μM, plasma membrane disruption
Protocol: Pulmonary microvessel myocyte isolation from the isolated lungs from the newborn rats. Myocytes are isolated using a modification of the method of Marshall et al. (______ (1999). Freshly excised rat heart and lungs are rinsed with phosphate-buffered saline (PBS) containing penicillin and streptomycin (1%). The right ventricle is cannulated and the pulmonary vasculature is flushed with the PBS (30 mL). Using the PA cannula, M199 growth media (30 mL) containing HEPES (25 mM), and penicillin and streptomycin (1%) plus low melting point agarose (0.5%) and iron particles (0.5%), is flushed through the pulmonary vasculature. Because the iron particles are too large to pass through the capillaries, only the arteries contained iron particles. The airways are filled via the trachea with M199 (15 mL) containing low melting point agarose (1%) without iron. The lungs are plunged into cold PBS to cause the agarose to gel. After 10 minutes, the lobes are dissected free and finely minced in a petri dish. […]
In steady state, increases in fluorescence occur when the rate of intracellular oxidation of the dye is accelerated. […] To confirm that the decrease in DCF fluorescence seen upon reoxygenation is not due to a loss of plasma membrane integrity, additional studies are carried out using SYTOX Green dye (100 nM) to detect changes in membrane permeability. […]

[7] = test system: isolated lungs from the newborn rats; experiment: HPV responses in isolated lungs: PA pressure after agonist; set-up: species or system Sprague-Dawley rats; details: 10 nM in recirculating perfusate
Protocol: as §1
HPV responses in isolated lungs from the newborn rats. […]

Molecule: COC1=C(OC)C(=O)C(C/C=C(\C)CC/C=C(\C)CC/C=C(\C)CC/C=C(\C)CC/C=C(\C)CC/C=C(\C)CC/C=C(\C)CC/C=C(\C)CC/C=C(\C)CCC=C(C)C)=C(C)C1=O [CoQ10, 2,3-dimethoxy-5-methyl-6-decaprenyl-1,4-benzoquinone]
- solubility [1]: only lipid soluble

Molecule: CCN(CC)C(=S)S [DDC, diethyldithiocarbamate]
- effect on U46619 vasoconstriction response ([2]; 1 μM): no effect

Molecule: O=S(=O)(O)c1cc(N=C=S)ccc1C=Cc1ccc(N=C=S)cc1S(=O)(=O)O [DIDS, 4,4′-diisothiocyanatostilbene-2,2′-disulphonic acid]
- effect on U46619 vasoconstriction response ([2]; 200 μM): augmented

Molecule: c1ccc2c(c1)[I+]c1ccccc1-2 [DPI, diphenyleneiodonium]
- effect on U46619 vasoconstriction response ([2]; 10 μM): augmented

Molecule: N#CC(C#N)=NNc1ccc(OC(F)(F)F)cc1 [FCCP, carbonyl cyanide p-trifluoromethoxyphenylhydrazone]
- TMRE fluorescence (ΔΨm) [3]: rapid, significant decrease in fluorescence

Molecule: OO [H2O2]
- intracellular DCF fluorescence [4]: increased significantly and progressively

Molecule: CO/C(=C/C(N)=O)[C@H](C)[C@H](/C=C/c1csc(-c2csc([C@@H](C)/C=C/C=C/C(C)C)n2)n1)OC [Myxothiazol, myxothiazol]
- effect on U46619 vasoconstriction response ([2]; 50 μg/mL): no effect

Molecule: S=C(S)N1CCCC1 [PDTC, pyrrolidine dithiocarbamate]
- effect on U46619 vasoconstriction response ([2]; 10 μM): augmented
- solubility [1]: poorly soluble
- pulmonary mean arterial pressure (MAP), edema, and cellular infiltration [5]: reduced
- pulmonary oxygenation [5]: improved significantly

Molecule: C[C@@H]1CC[C@@]2(OC1)O[C@H]1[C@@H](O)[C@H]3[C@@H]4CC[C@H]5C[C@@H](O[C@@H]6O[C@H](CO)[C@H](O[C@@H]7O[C@H](CO)[C@@H](O)[C@H](O[C@@H]8OC[C@@H](O)[C@H](O)[C@H]8O)[C@H]7O[C@@H]7O[C@H](CO)[C@H](O)[C@H](O[C@@H]8O[C@H](CO)[C@@H](O)[C@H](O)[C@H]8O)[C@H]7O)[C@H](O)[C@H]6O)[C@H](O)C[C@]5(C)[C@H]4CC[C@]3(C)[C@H]1[C@@H]2C [digitonin]
- nuclear staining with SYTOX Green [6]: all cells demonstrated nuclear staining

Molecule: O=c1c2ccccc2[se]n1-c1ccccc1 [ebselen]
- effect on U46619 vasoconstriction response ([2]; 50 μM): no effect

Molecule: C=C(C)[C@H]1Cc2c(ccc3c2O[C@@H]2COc4cc(OC)c(OC)cc4[C@@H]2C3=O)O1 [rotenone]
- effect on U46619 vasoconstriction response ([2]; 50 ng/mL): augmented
- effect on U46619 vasoconstriction response ([2]; 5 μg/mL, isolated perfused newborn rat lung): blunted

Molecule: Angiotensin II
- increase of PA pressure [7]: ~2 cm H2O

Molecule: antimycin A
- effect on U46619 vasoconstriction response ([2]; 1 ng/mL): augmented

B1: recombinant human IκB-α: recombinant human IκB-α which can maintain the inhibitory effect on NF-κB (protein, UniProt P25963 1-317, looked up)
NF-kappa-B inhibitor alpha: MFQAAERPQEWAMEGPRDGLKKERLLDDRHDSGLDSMKDEEYEQMVKELQEIRLEPQEVPRGSEPWKQQLTEDGDSFLHLAIIHEEKALTMEVIRQVKGDLAFLNFQNNLQQTPLHLAVITNQPEIAEALLGAGCDPELRDFRGNTPLHLACEQGCLASVGVLTQSCTTPHLHSILKATNYNGHTCLHLASIHGYLGIVELLVSLGADVNAQEPCNGRTALHLAVDLQNPDLVSLLLKCGADVNRVTYQGYSPYQLTWGRPSTRIQQQLGQLTLENLQMLPESEDEESYDTESEFTEFTEDELPYDDCVFGGQRLTL
- solubility [1]: poorly soluble
